Measured values from PubChem BioAssay AID330 (DTP/NCI, 2004).
Where “and” joins values, the source holds several entries; their conditions need not be identical. Equal entries are not always repeated. Toxic doses and inconclusive results are not listed. The calls were made as follows: active = survival T/C of 150% or more; inactive = T/C below 125% in these data.

Test system: P388 leukemia ip, CD2F1 mice, survival T/C
Test: NCI In Vivo Anticancer Drug Screen. Data for tumor model P388 Leukemia (intraperitoneal) in CD2F1 (CDF1) mice
Details: endpoint: median survival time, higher = longer survival
Method in brief: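 Mice carrying the transplanted tumor received test compound or vehicle. Survival was recorded in each group, and the value is the treated-group measurement divided by that of the vehicle-treated control group.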

[1] = dose: 60.0 mg/kg/injection, schedule: Q01DX005 (ip), vehicle: saline
[2] = dose: 120.0 mg/kg/injection, schedule: Q01DX005 (ip), vehicle: saline
[3] = dose: 50.0 mg/kg/injection, schedule: Q01DX005 (ip), vehicle: saline with Tween-80
[4] = dose: 100.0 mg/kg/injection, schedule: Q01DX005 (ip), vehicle: saline with Tween-80
[5] = dose: 200.0 mg/kg/injection, schedule: Q01DX005 (ip), vehicle: saline with Tween-80
[6] = dose: 100.0 mg/kg/injection, schedule: Q01DX009 (ip), vehicle: saline with Tween-80
[7] = dose: 50.0 mg/kg/injection, schedule: Q01DX009 (ip), vehicle: saline
[8] = dose: 100.0 mg/kg/injection, schedule: Q01DX009 (ip), vehicle: saline
[9] = dose: 200.0 mg/kg/injection, schedule: Q01DX009 (ip), vehicle: saline
[10] = dose: 60.0 mg/kg/injection, schedule: Q01DX005 (ip), vehicle: saline with Tween-80
[11] = dose: 120.0 mg/kg/injection, schedule: Q01DX005 (ip), vehicle: saline with Tween-80
[12] = dose: 240.0 mg/kg/injection, schedule: Q01DX005 (ip), vehicle: saline with Tween-80
[13] = dose: 50.0 mg/kg/injection, schedule: Q01DX005 (ip), vehicle: Klucel (hydroxypropylcellulose) (HPC)
[14] = dose: 15.0 mg/kg/injection, schedule: Q01DX005 (ip), vehicle: saline
[15] = dose: 30.0 mg/kg/injection, schedule: Q01DX005 (ip), vehicle: saline
[16] = dose: 100.0 mg/kg/injection, schedule: Q01DX001 (ip), vehicle: Klucel (hydroxypropylcellulose) (HPC)
[17] = dose: 200.0 mg/kg/injection, schedule: Q01DX001 (ip), vehicle: Klucel (hydroxypropylcellulose) (HPC)
[18] = dose: 100.0 mg/kg/injection, schedule: Q01DX005 (ip), vehicle: Klucel (hydroxypropylcellulose) (HPC)
[19] = dose: 200.0 mg/kg/injection, schedule: Q01DX005 (ip), vehicle: Klucel (hydroxypropylcellulose) (HPC)

Measured: T/C

O=C(CC1(O)C(=O)Nc2ccc([N+](=O)[O-])cc21)c1ccco1 (centres undefined)
inactive: dose: 60.0 mg/kg/injection, schedule: Q01DX005 (ip), vehicle: Klucel (hydroxypropylcellulose) (HPC) 96 % of control | dose: 120.0 mg/kg/injection, schedule: Q01DX005 (ip), vehicle: Klucel (hydroxypropylcellulose) (HPC) 100 % of control | dose: 240.0 mg/kg/injection, schedule: Q01DX005 (ip), vehicle: Klucel (hydroxypropylcellulose) (HPC) 99 % of control

CSCCCCN=[N+]=[N-]
inactive: [1] 104 % of control | [2] 112 % of control

CC(/C=N/Nc1ccccc1)=N\N=c1/scc(-c2ccc(Cl)cc2)n1-c1ccc(Cl)cc1
inactive: [3] 86 % of control | [4] 92 % of control | [5] 94 % of control

Cc1c(-c2ccccc2)ccnc1/C=N/NC(=S)NCCc1ccccc1
inactive: [6] 101 % of control and 95 % of control

CN1C(=O)C(CCCN=C(N)N)NC1=S (centres undefined)
inactive: [1] 98 % of control | [2] 111 % of control | dose: 240.0 mg/kg/injection, schedule: Q01DX005 (ip), vehicle: saline 104 % of control

O=C(NN1C(=O)CSC1c1ccccc1F)c1ccncc1 (centres undefined)
inactive: [3] 93 % of control | [4] 108 % of control | [5] 97 % of control

COC(=O)C(Br)C(Br)c1ccccc1 (centres undefined)
inactive: dose: 25.0 mg/kg/injection, schedule: Q01DX009 (ip), vehicle: saline 104 % of control and 111 % of control | dose: 50.0 mg/kg/injection, schedule: Q01DX009 (ip), vehicle: saline with Tween-80 110 % of control | [7] 119 % of control | [6] 91 % of control | [8] 120 % of control | dose: 132.0 mg/kg/injection, schedule: Q01DX009 (ip), vehicle: saline with Tween-80 113 % of control | dose: 200.0 mg/kg/injection, schedule: Q01DX009 (ip), vehicle: saline with Tween-80 107 % of control and 113 % of control | [9] 122 % of control | dose: 300.0 mg/kg/injection, schedule: Q01DX009 (ip), vehicle: saline with Tween-80 95 % of control

N/C(CC(=O)Nc1ccc(F)cc1)=N\O
inactive: [10] 108 % of control | [11] 102 % of control | [12] 100 % of control

N#Cc1ccoc1
inactive: dose: 12.5 mg/kg/injection, schedule: Q01DX005 (ip), vehicle: Klucel (hydroxypropylcellulose) (HPC) 93 % of control | dose: 25.0 mg/kg/injection, schedule: Q01DX005 (ip), vehicle: Klucel (hydroxypropylcellulose) (HPC) 102 % of control | [13] 104 % of control

O=C1CCC(N2CCCCC2)CCC1(c1ccccc1)c1ccccc1 (centres undefined)
inactive: [3] 106 % of control | [4] 103 % of control | [5] 96 % of control

COc1c2occc2c(CN)c2ccc(=O)oc12
inactive: dose: 7.5 mg/kg/injection, schedule: Q01DX005 (ip), vehicle: saline 98 % of control | [14] 99 % of control | [15] 97 % of control

Cn1c(=O)c(Br)c(Br)c(=O)n1-c1ccc(Br)cc1
inactive: dose: 42.5 micrograms/kg/injection, schedule: Q01DX009 (ip), vehicle: Klucel (hydroxypropylcellulose) (HPC) 95 % of control | dose: 85.0 micrograms/kg/injection, schedule: Q01DX009 (ip), vehicle: Klucel (hydroxypropylcellulose) (HPC) 103 % of control | dose: 170.0 micrograms/kg/injection, schedule: Q01DX009 (ip), vehicle: Klucel (hydroxypropylcellulose) (HPC) 100 % of control

O=C1OC(C(O)CO)/C(=N\O)C1O (centres undefined)
inactive: [7] 104 % of control | [8] 104 % of control | [9] 111 % of control

O=S(=O)(O)C(O)c1ccc(Cl)cc1Cl (centres undefined)
inactive: dose: 50.0 mg/kg/injection, schedule: Q01DX001 (ip), vehicle: Klucel (hydroxypropylcellulose) (HPC) 100 % of control | [16] 100 % of control | [17] 116 % of control

CCn1c(=O)c2[nH]c(Cl)nc2n(C)c1=O
inactive: dose: 16.0 mg/kg/injection, schedule: Q01DX009 (ip), vehicle: Klucel (hydroxypropylcellulose) (HPC) 111 % of control | dose: 25.0 mg/kg/injection, schedule: Q01DX009 (ip), vehicle: Klucel (hydroxypropylcellulose) (HPC) 102 % of control | dose: 32.0 mg/kg/injection, schedule: Q01DX009 (ip), vehicle: Klucel (hydroxypropylcellulose) (HPC) 107 % of control | dose: 50.0 mg/kg/injection, schedule: Q01DX009 (ip), vehicle: Klucel (hydroxypropylcellulose) (HPC) 94 % of control | dose: 64.0 mg/kg/injection, schedule: Q01DX009 (ip), vehicle: Klucel (hydroxypropylcellulose) (HPC) 102 % of control

CCCCOP(O)(=S)OCCCC.[Eu]
inactive: dose: 100.0 mg/kg/injection, schedule: Q04DX002 (ip), vehicle: saline with Tween-80 96 % of control | dose: 200.0 mg/kg/injection, schedule: Q04DX002 (ip), vehicle: saline with Tween-80 91 % of control | dose: 400.0 mg/kg/injection, schedule: Q04DX002 (ip), vehicle: saline with Tween-80 90 % of control

COc1ccc([P+](CCN2C(=O)c3ccccc3C2=O)(c2ccc(OC)cc2)c2ccc(OC)cc2)cc1
inactive: dose: 0.78 mg/kg/injection, schedule: Q01DX009 (ip), vehicle: water 121 % of control | dose: 1.56 mg/kg/injection, schedule: Q01DX009 (ip), vehicle: water 114 % of control | dose: 2.7 mg/kg/injection, schedule: Q01DX009 (ip), vehicle: water 116 % of control | dose: 3.13 mg/kg/injection, schedule: Q01DX009 (ip), vehicle: water 121 % of control | dose: 12.5 mg/kg/injection, schedule: Q01DX009 (ip), vehicle: water 92 % of control

O=c1[nH]c(Nc2ccccc2)c([N+](=O)[O-])c(=O)[nH]1
inactive: [10] 106 % of control | [11] 107 % of control | [12] 106 % of control

CC(O)c1cc2c(cc1Br)OCO2 (centres undefined)
inactive: [16] 105 % of control | [17] 104 % of control | dose: 400.0 mg/kg/injection, schedule: Q01DX001 (ip), vehicle: Klucel (hydroxypropylcellulose) (HPC) 104 % of control

CCCCC(NC(=O)OC(C)(C)C)C(=O)O (centres undefined)
inactive: [13] 98 % of control | [18] 99 % of control | [19] 104 % of control

Cc1ccc(NCn2c(=S)sc3ccccc32)cc1
inactive: [13] 89 % of control | [18] 88 % of control | [19] 98 % of control

Cc1cc(/C=C2/OC(=O)c3ccccc32)cc(C)c1O
inactive: dose: 100.0 mg/kg/injection, schedule: Q04DX002 (ip), vehicle: saline 94 % of control | dose: 200.0 mg/kg/injection, schedule: Q04DX002 (ip), vehicle: saline 97 % of control | dose: 400.0 mg/kg/injection, schedule: Q04DX002 (ip), vehicle: saline 97 % of control

CC1CCC2(CC1C)C(=O)NC(=O)NC2=O (centres undefined)
inactive: dose: 12.5 mg/kg/injection, schedule: Q04DX003 (ip), vehicle: Klucel (hydroxypropylcellulose) (HPC) 100 % of control | dose: 25.0 mg/kg/injection, schedule: Q04DX003 (ip), vehicle: Klucel (hydroxypropylcellulose) (HPC) 97 % of control | dose: 50.0 mg/kg/injection, schedule: Q04DX003 (ip), vehicle: Klucel (hydroxypropylcellulose) (HPC) 105 % of control | dose: 100.0 mg/kg/injection, schedule: Q04DX003 (ip), vehicle: Klucel (hydroxypropylcellulose) (HPC) 100 % of control

CCOC(=O)c1ccc(-n2c(C)nc3ccc(Br)cc3c2=O)cc1
inactive: [10] 98 % of control | [11] 95 % of control | [12] 100 % of control

O=C(Nc1ccc(Cl)cc1)Nc1nnc(-c2ccc(F)cc2)o1
inactive: dose: 15.0 mg/kg/injection, schedule: Q01DX005 (ip), vehicle: saline with Tween-80 100 % of control | dose: 30.0 mg/kg/injection, schedule: Q01DX005 (ip), vehicle: saline with Tween-80 91 % of control | [10] 90 % of control

c1ccc(/C2=N\OCCCOc3ccccc32)cc1
inactive: [13] 88 % of control | [18] 87 % of control | [19] 87 % of control

O=C1OC(=O)C2C3C=CC(O3)C12 (centres undefined)
inactive: [14] 100 % of control | [15] 91 % of control | [1] 87 % of control and 89 % of control

COC(=O)C1=C(C(=O)OC)CC(n2nnc(C(=O)OC)c2C(=O)OC)=CC1
inactive: [10] 92 % of control | [11] 101 % of control | [12] 99 % of control

O=[N+]([O-])c1ccc(Sc2ncnc3c2ncn3C2OC(CO)C(O)C2O)c2nonc12 (centres undefined)
inactive: dose: 12.5 mg/kg/injection, schedule: Q01DX009 (ip), vehicle: suspension in saline 119 % of control | dose: 50.0 mg/kg/injection, schedule: Q01DX009 (ip), vehicle: suspension in saline 103 % of control and 122 % of control
